Legend:
Assay in all cases: relative viability (nuclei count vs DMSO), 5 days (fraction); higher = more cells survive
Carboplatin + OSI-027 = compound: C1CC(C1)(C(=O)O)C(=O)O.[NH2-].[NH2-].[Pt+2] [Carboplatin] + COc1cccc2cc(-c3nc([C@H]4CC[C@H](C(=O)O)CC4)n4ncnc(N)c34)[nH]c12 [OSI-027] (partner 0.5 µM)
Method in brief: (§1)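 Five library-drug doses in √10 steps were combined with a fixed anchor-drug dose, or a single drug was given alone, by pin tool to lung cancer cell lines in 1536-well plates the day after seeding. Nuclei were stained and counted after 5 days. Relative viability is the nuclei count in treated wells over that in vehicle wells, taken as the median of duplicate plates.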

Carboplatin + Decitabine = compound: C1CC(C1)(C(=O)O)C(=O)O.[NH2-].[NH2-].[Pt+2] [Carboplatin] + Nc1ncn([C@H]2C[C@H](O)[C@@H](CO)O2)c(=O)n1 [Decitabine] (partner 2 µM)
Method in brief: as §1

GSK126 + Navitoclax = compound: CC[C@H](C)N1C=C(C2=C(C=C(C=C21)C3=CN=C(C=C3)N4CCNCC4)C(=O)NCC5=C(C=C(NC5=O)C)C)C [GSK126] + CC1(C)CCC(c2ccc(Cl)cc2)=C(CN2CCN(c3ccc(C(=O)NS(=O)(=O)c4ccc(N[C@H](CCN5CCOCC5)CSc5ccccc5)c(S(=O)(=O)C(F)(F)F)c4)cc3)CC2)C1 [Navitoclax] (partner 0.5 µM)
Method in brief: as §1

GSK126 + AZD7762 = compound: CC[C@H](C)N1C=C(C2=C(C=C(C=C21)C3=CN=C(C=C3)N4CCNCC4)C(=O)NCC5=C(C=C(NC5=O)C)C)C [GSK126] + NC(=O)Nc1cc(-c2cccc(F)c2)sc1C(=O)N[C@H]1CCCNC1 [AZD7762] (partner 0.2 µM)
Method in brief: as §1

Cell Line	relative viability (Carboplatin + OSI-027; first compound 0.08 µM)	relative viability (Carboplatin + OSI-027; first compound 0.253 µM)	relative viability (Carboplatin + OSI-027; first compound 0.8 µM)	relative viability (Carboplatin + OSI-027; first compound 2.53 µM)	relative viability (Carboplatin + OSI-027; first compound 8 µM)	relative viability (Carboplatin + Decitabine; first compound 0.08 µM)	relative viability (Carboplatin + Decitabine; first compound 0.253 µM)	relative viability (Carboplatin + Decitabine; first compound 0.8 µM)	relative viability (Carboplatin + Decitabine; first compound 2.53 µM)	relative viability (Carboplatin + Decitabine; first compound 8 µM)	relative viability (GSK126 + Navitoclax; first compound 0.08 µM)	relative viability (GSK126 + Navitoclax; first compound 0.253 µM)	relative viability (GSK126 + Navitoclax; first compound 0.8 µM)	relative viability (GSK126 + Navitoclax; first compound 2.53 µM)	relative viability (GSK126 + Navitoclax; first compound 8 µM)	relative viability (GSK126 + AZD7762; first compound 0.08 µM)	relative viability (GSK126 + AZD7762; first compound 0.253 µM)	relative viability (GSK126 + AZD7762; first compound 0.8 µM)	relative viability (GSK126 + AZD7762; first compound 2.53 µM)	relative viability (GSK126 + AZD7762; first compound 8 µM)
NCI-H441	0.715	0.668	0.767	0.696	0.451	0.215	0.242	0.211	0.209	0.222	0.948	0.429	0.578	0.878	0.678	1.29	0.965	1.03	1.1	1.08
NCI-H1395	0.83	0.597	0.674	0.527	0.52	0.797	0.747	0.63	0.584	0.516	1.59	1.04	1.09	1.33	0.95	0.392	0.381	0.399	0.399	0.342
NCI-H1666	0.831	0.818	0.831	0.644	0.566	0.715	0.824	0.774	0.752	0.653	1.08	0.982	1.02	0.833	1.12	0.861	0.8	0.82	0.936	0.813
HCC-15	0.833	0.664	0.689	0.635	0.439	0.657	0.627	0.588	0.587	0.452	0.719	0.662	0.658	0.676	0.623	1.36	1.17	1.12	0.645	1.07
NCI-H3122	0.985	1.24	0.828	0.732	0.752	0.49	0.433	0.437	0.397	0.436	1.04	1.06	1.05	1	1.02	0.968	1.01	0.956	1.03	1.01
201T	0.828	0.749	0.824	0.68	0.349	0.869	0.822	0.865	0.791	0.76	1.18	1.27	1.27	1.26	1.32	0.704	0.622	0.617	0.65	0.567
RERF-LC-KJ	0.585	0.639	0.541	0.464	0.343	0.627	0.665	0.646	0.574	0.422	1.29	1.02	1.18	0.956	0.828	–	1.09	0.959	1.1	1.03
ChaGo-K-1	0.614	0.473	0.527	0.42	0.316	0.563	0.527	0.464	0.413	0.388	1.19	0.925	1.03	1.27	1.09	0.881	0.87	0.836	0.893	0.874
NCI-H1734	0.707	0.674	0.63	0.528	0.572	0.485	0.46	0.483	0.465	0.438	0.895	0.845	0.843	0.881	0.86	0.597	0.497	0.526	0.576	0.531
NCI-H1651	0.734	0.662	0.706	0.506	0.487	0.773	0.633	0.589	0.574	0.509	1.19	0.943	1.07	1.07	1.2	0.534	0.416	0.467	0.537	0.364
PC-14	0.864	0.923	0.716	0.369	0.133	0.179	0.209	0.165	0.119	0.0887	1.04	0.998	1.02	0.95	0.804	0.335	0.314	0.35	0.417	0.312
NCI-H1915	0.616	0.576	0.673	0.601	0.408	0.264	0.258	0.249	0.23	0.258	0.83	0.789	0.786	0.789	0.786	0.762	0.739	0.663	0.755	0.676
NCI-H1975	0.901	0.823	0.713	0.762	0.754	0.416	0.399	0.402	0.43	0.367	1.04	1.18	0.94	0.998	0.892	0.775	0.703	0.682	0.784	0.64
BEN	0.295	0.304	0.266	0.287	0.292	0.87	0.714	0.691	0.634	0.599	0.0742	0.0598	0.0517	0.0958	0.0522	0.718	0.605	0.785	0.744	0.612
EPLC-272H	0.299	0.287	0.291	0.259	0.247	0.402	0.403	0.361	0.366	0.355	1.24	1.15	1.29	1.17	1.2	0.272	0.296	0.209	0.262	0.112
LU99A	0.307	0.299	0.269	0.3	0.283	0.862	0.869	0.864	0.731	0.724	0.926	0.812	0.705	0.777	0.766	0.37	0.254	0.338	0.346	0.392

— the supplement of paper PMC10307832
